Columns and labels:
ACLY [1] = molecular target: T1, ACLY (Homo sapiens (Human), UniProt P53396); test: InCell Pulse assay (permeate HEK293 cells, bind to and stabilize ACLY); format: cell-based; settings: HEK293 cells transfected with pICP-ACLY(FL)-ePL; 1 hour at 37° C., 55° C. heat pulse 10 minutes; read-out: InCell Pulse IC50 GMean
Protocol: HEK293 cells transfected for 24 hours with pICP-ACLY(FL)-ePL (3 μg DNA per T25 flask) using FuGene HD (Promega Corp.) were harvested and cryopreserved. On the day of the assay, the frozen transfected cells were thawed at 37° C., and the storage medium (DMEM with 2 mM L-Glutamine, 10% FBS and a final concentration of DMSO 10%) was exchanged with assay medium (OptiMEM; Gibco™, ThermoFischer Scientific). Compounds were 3-fold serially diluted in DMSO over 11-point concentration range. 100 nL of the corresponding dilutions were spotted into the assay plate (Greiner AG; 384 Well, PP, Small Volume, Deep Well, Natural, cat. no. 784201) followed by the addition of 20 μL of cell suspension adjusted with assay medium to 7.5E4 cells/mL. Subsequently, the plates were sealed and incubated for 1 hour at 37° C. Afterwards, the plates were fixed upside down in a rack and incubated in a 55° C. water bath for 10 minutes. Following this heat pulse step, plates were allowed to reach room temperature for 10 minutes and centrifuged for a few seconds at 1000 rpm and room temperature. 25 μL EA detection solution (working solution: 0.0167× InCell EA Reagent, 0.15× InCell Dilution Buffer, 0.167× InCell Lysis Buffer; 0.667× InCell Substrate Reagent; InCell Hunter Detection kit; Eurofins DiscoverX; cat. no. 96-0079) were added to each well. Afterwards, 42 μL were transferred from the assay plate to the detection plate (Corning Inc., 384-well Low Flange Black Flat Bottom Polystyrene NBS Microplate, cat. no. 3575), followed by an incubation for 1 hour at room temperature, a centrifugation step for 1 minute at 1000 rpm and the detection of the luminescence signal using an EnVision microplate reader (Perkin Elmer Inc.). Concentration-response curve-fitting and IC50 determination was performed using Evotec's in-house evaluation software APlus with a four-parameter non-linear regression fit model. Data was normalized to 0.5% (final concentration) DMSO as low/negative control and 1 μM (final concentration) NDI-094311 as high/positive control.

ACLY [2] = molecular target: T1, ACLY; test: Human ACLY (hACLY) RF/MS activity assay; format: biochemical; settings: 1 nM hACLY; 30 min pre-incubation; 15 μM Coenzyme A, 50 μM ATP, 50 μM citrate; CoA to Acetyl-CoA by RF/MS; read-out: RFMS IC50 GMean
Protocol: Compounds of the disclosure were evaluated for their efficacy in inhibiting hACLY using rapid fire mass spectrometry (RF/MS).
The final reaction volume for each compound was 20 μl and consisted of buffer (50 mM Hepes pH 8.0, 10 mM MgCl2, 0.003% BSA, 0.01% Brij35, 50 mM NaCl, 4 mM DTT) and 1 nM hACLY, EV12992, PP6692) using Greiner, 384 well small volume, deep well plates (Cat #784201). A two-fold dilution series with a top concentration of 10 μM was used to record a concentration response curve. Both the substrate (CoA) and product (Acetyl-CoA) were quantified, and given a ratio. […] The final DMSO-concentration was 1% (v/v). Compounds were pre-incubated for 30 min with the buffered enzyme solution at RT (20° C.), and substrate solution was added (final concentrations: 15 μM Coenzyme A, 50 μM ATP and 50 μM citrate) to initiate the enzyme reaction. The enzyme reaction was incubated for additional 30 min at RT. The reaction was quenched upon addition of 40 μl of 5% Formic acid in H2O and centrifuged (4350 rpm at 20° C. for 10 min).
Product formation was quantified using a RF/MS-based method based on mass change of CoA (substrate) to Acetyl-CoA (product).

T1 sequence (P53396 whole entry): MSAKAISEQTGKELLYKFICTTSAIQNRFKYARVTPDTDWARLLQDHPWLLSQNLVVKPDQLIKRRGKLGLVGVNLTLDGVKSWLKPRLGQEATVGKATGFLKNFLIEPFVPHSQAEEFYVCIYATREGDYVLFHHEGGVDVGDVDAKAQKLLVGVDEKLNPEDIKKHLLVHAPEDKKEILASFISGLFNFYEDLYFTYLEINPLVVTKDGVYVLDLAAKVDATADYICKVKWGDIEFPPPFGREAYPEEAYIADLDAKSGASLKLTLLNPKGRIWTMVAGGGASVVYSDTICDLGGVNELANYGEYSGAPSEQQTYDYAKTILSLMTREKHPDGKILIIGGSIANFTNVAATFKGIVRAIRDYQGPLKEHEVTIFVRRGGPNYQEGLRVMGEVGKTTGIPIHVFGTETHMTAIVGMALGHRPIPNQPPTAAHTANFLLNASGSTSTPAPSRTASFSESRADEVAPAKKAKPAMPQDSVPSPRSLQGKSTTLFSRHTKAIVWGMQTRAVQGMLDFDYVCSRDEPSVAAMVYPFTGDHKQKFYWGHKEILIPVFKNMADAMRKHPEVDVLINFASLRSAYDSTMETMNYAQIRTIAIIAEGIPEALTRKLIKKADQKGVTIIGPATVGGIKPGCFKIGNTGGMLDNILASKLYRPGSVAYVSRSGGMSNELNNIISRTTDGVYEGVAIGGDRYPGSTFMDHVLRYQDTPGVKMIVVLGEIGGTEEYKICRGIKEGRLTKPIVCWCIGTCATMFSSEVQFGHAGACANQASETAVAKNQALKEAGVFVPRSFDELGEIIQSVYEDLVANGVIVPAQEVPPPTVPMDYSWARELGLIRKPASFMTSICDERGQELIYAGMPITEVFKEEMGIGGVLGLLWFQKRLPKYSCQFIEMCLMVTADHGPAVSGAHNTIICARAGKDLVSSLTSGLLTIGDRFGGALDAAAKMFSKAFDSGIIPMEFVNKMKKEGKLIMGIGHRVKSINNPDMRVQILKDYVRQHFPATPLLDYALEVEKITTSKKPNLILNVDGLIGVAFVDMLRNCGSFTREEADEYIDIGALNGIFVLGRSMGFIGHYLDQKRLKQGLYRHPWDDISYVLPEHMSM

Row | Compound | IC50 (ACLY [1]) | IC50 (ACLY [2])
1 | O=C1OCC2Cc3cccc(c3O2)-c2cc(c(F)cc2F)NS(=O)(=O)c2cc1cc(Cl)c2O (single isomer, unassigned) [Compound 40, 15-chloro-21,23-difluoro-16-hydroxy-18,18-dioxo-8,11-dioxa-18λ6-thia-19-azapentacyclo[18.3.1.16,9.113,17.02,7]hexacosa-1(23),2(7),3,5,13,15,17(25),20(24),21-nonaen-12-one] | 0.3 to 1 µM | 0.1 to 10 µM
2 | O=C1OCC2Cc3cccc(c3O2)-c2cc(c(F)cc2F)NS(=O)(=O)c2cc1cc(Cl)c2O (single isomer, unassigned) [Compound 41, 15-chloro-21,23-difluoro-16-hydroxy-18,18-dioxo-8,11-dioxa-18λ6-thia-19-azapentacyclo[18.3.1.16,9.113,17.02,7]hexacosa-1(23),2(7),3,5,13,15,17(25),20(24),21-nonaen-12-one] | < 0.3 µM | 
3 | CC1CCOC(=O)c2cc(Cl)c(O)c(c2)S(=O)(=O)Nc2cc(c(F)cc2F)-c2ccccc21 (single isomer, unassigned) [Compound 44, 15-chloro-21,23-difluoro-16-hydroxy-8-methyl-18,18-dioxo-11-oxa-18λ6-thia-19-azatetracyclo[18.3.1.113,17.02,7]pentacosa-1(23),2(7),3,5,13,15,17(25),20(24),21-nonaen-12-one] | 1 to 50 µM | 0.1 to 10 µM
4 | CC1CCOC(=O)c2cc(Cl)c(O)c(c2)S(=O)(=O)Nc2cc(c(F)cc2F)-c2ccccc21 (single isomer, unassigned) [Compound 45, 15-chloro-21,23-difluoro-16-hydroxy-8-methyl-18,18-dioxo-11-oxa-18λ6-thia-19-azatetracyclo[18.3.1.113,17.02,7]pentacosa-1(23),2(7),3,5,13,15,17(25),20(24),21-nonaen-12-one] | < 0.3 µM | 0.02 to 0.1 µM
5 | O=C1NCCOc2ccccc2-c2cc3c(cc2F)CCN3C(=O)c2cc1ccc2O [Compound 11, 24-fluoro-16-hydroxy-8-oxa-11,19-diazapentacyclo[17.5.2.1^13,17.0^2,7.0^22,26]heptacosa-1(24),2,4,6,13,15,17(27),22,25-nonaene-12,18-dione] |  | ≥ 10 µM
6 | O=C1NCCOc2ccccc2-c2cc(c(F)cc2F)NC(=O)c2cc1ccc2O [Compound 12, 21,23-difluoro-16-hydroxy-8-oxa-11,19-diazatetracyclo[18.3.1.1^13,17.0^2,7]pentacosa-1(23),2,4,6,13,15,17(25),20(24),21-nonaene-12,18-dione] | ≥ 50 µM | ≥ 10 µM
7 | O=C1NCCOc2ccccc2-c2cc(c(F)cc2F)NCc2cc1ccc2O [Compound 13, 21,23-difluoro-16-hydroxy-8-oxa-11,19-diazatetracyclo[18.3.1.1^13,17.0^2,7]pentacosa-1(23),2,4,6,13,15,17(25),20(24),21-nonaen-12-one] | ≥ 50 µM | ≥ 10 µM
8 | O=C1NCCOc2ccccc2-c2cc(c(F)cc2F)CS(=O)(=O)c2cc1cc(Cl)c2O [Compound 14, 15-chloro-21,23-difluoro-16-hydroxy-8-oxa-18lambda6-thia-11-azatetracyclo[18.3.1.1^13,17.0^2,7]pentacosa-1(24),2,4,6,13,15,17(25),20,22-nonaene-12,18,18-trione] | ≥ 50 µM | ≥ 10 µM
9 | COc1c(Cl)cc2cc1S(=O)(=O)Nc1cc(ccc1O)-c1ccccc1OCCOC2=O [Compound 25, 15-chloro-21-hydroxy-16-methoxy-8,11-dioxa-18lambda6-thia-19-azatetracyclo[18.3.1.1^13,17.0^2,7]pentacosa-1(24),2,4,6,13,15,17(25),20,22-nonaene-12,18,18-trione] |  | ≥ 10 µM
10 | O=C1OCCOc2ccccc2-c2ccc(F)c(c2)NS(=O)(=O)c2cc1ncc2O [Compound 66, 21-fluoro-16-hydroxy-18,18-dioxo-8,11-dioxa-18λ6-thia-14,19-diazatetracyclo[18.3.1.113,17.02,7]pentacosa-1(24),2,4,6,13,15,17(25),20,22-nonaen-12-one] |  | 0.02 to 0.1 µM
